Laboratory results published in paper PMC6416077 (Journal of the American Chemical Society, 2019).

Molecular target: T1, HsOMT (Hpm5) (Hypomyces subiculosus, UniProt B3FWS1)
T1 sequence (B3FWS1 1-398): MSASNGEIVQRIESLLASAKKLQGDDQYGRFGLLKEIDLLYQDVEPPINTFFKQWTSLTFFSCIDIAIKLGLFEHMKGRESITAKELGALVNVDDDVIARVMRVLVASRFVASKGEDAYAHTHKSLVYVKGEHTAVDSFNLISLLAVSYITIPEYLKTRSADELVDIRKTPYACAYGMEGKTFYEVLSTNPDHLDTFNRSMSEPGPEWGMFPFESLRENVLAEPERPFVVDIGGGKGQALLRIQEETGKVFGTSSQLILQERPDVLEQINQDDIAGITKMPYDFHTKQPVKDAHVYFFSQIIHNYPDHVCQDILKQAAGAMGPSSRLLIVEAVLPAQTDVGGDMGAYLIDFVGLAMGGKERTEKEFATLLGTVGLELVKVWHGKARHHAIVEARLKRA
Test: biocatalytic O-methylation in S. cerevisiae expressing HsOMT, LC-MS
Type: cell-based
Settings: native substrate; OH-5 (para) methylation to 5-O-methyl-DHZ

For `C[C@H]1C/C=C/[C@@H](O)CCC/C=C/c2cc(O)cc(O)c2C(=O)O1` [compound 3, DHZ], the “biocatalytic O-methylation in S. cerevisiae expressing HsOMT, LC-MS” value was “methylates the C-5 phenolic hydroxyl of the RAL14”.
